Results: ChEMBL document CHEMBL1201862, “PubChem BioAssay data set” (2004)
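1) Cells in 96-well plates. 2) Compound, 48 h, 5 concentrations. 3) Linear interpolation between surrounding doses. 4) Unreached endpoint = highest concentration. GI50: concentration for 50% inhibition of growth.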 Activity calls are given as the source filed them. Rule as the data show it: active = GI50 up to about 1.1 µM and inactive = higher.

Key:
Assay in all cases: NCI tumour cell line growth inhibition, 48 h
OVCAR-4 = system: OVCAR-4
HCT-15 = system: HCT-15
NCI-H23 = system: NCI-H23
786-0 = system: 786-0
BT-549 = system: BT-549
Hs-578T = system: Hs-578T
HCT-116 = system: HCT-116
MDA-N = system: MDA-N
SW-620 = system: SW-620
CAKI-1 = system: CAKI-1
SN12C = system: SN12C
RXF 393 = system: RXF 393
IGROV-1 = system: IGROV-1
SF-295 = system: SF-295
HOP-92 = system: HOP-92
HL-60 = system: HL-60
SK-OV-3 = system: SK-OV-3
HT-29 = system: HT-29
EKVX = system: EKVX
MDA-MB-435 = system: MDA-MB-435
UACC-62 = system: UACC-62
A549 = system: A549
OVCAR-8 = system: OVCAR-8
SNB-75 = system: SNB-75
MCF7 = system: MCF7
M14 = system: M14
RPMI-8226 = system: RPMI-8226
DU-145 = system: DU-145
K562 = system: K562
OVCAR-3 = system: OVCAR-3
SNB-19 = system: SNB-19
OVCAR-5 = system: OVCAR-5
UO-31 = system: UO-31
T47D = system: T47D
SF-268 = system: SF-268
MOLT-4 = system: MOLT-4
ACHN = system: ACHN
SR = system: SR
NCI/ADR-RES = system: NCI/ADR-RES
CCRF-CEM = system: CCRF-CEM
Malme-3M = system: Malme-3M
HOP-62 = system: HOP-62
PC-3 = system: PC-3
KM12 = system: KM12
LOX IMVI = system: LOX IMVI
NCI-H460 = system: NCI-H460
SK-MEL-5 = system: SK-MEL-5
MDA-MB-231 = system: MDA-MB-231
HCC 2998 = system: HCC 2998
SF-539 = system: SF-539
NCI-H522 = system: NCI-H522
U-251 = system: U-251
COLO 205 = system: COLO 205
UACC-257 = system: UACC-257
NCI-H226 = system: NCI-H226

Cc1cc(C)nc(NS(=O)(=O)c2ccc(Nc3nnc(/C=C/c4c(O)ccc5ccccc45)c(=O)n3N)cc2)n1
GI50 (OVCAR-4): 22.5 µM (inactive) | GI50 (HCT-15): 10.9 µM | GI50 (NCI-H23): 19.1 µM (inactive) | GI50 (786-0): 28.6 µM (inactive) | GI50 (BT-549): 32.7 µM (inactive) | GI50 (Hs-578T): 79.4 µM (inactive) | GI50 (HCT-116): 17.9 µM (inactive) | GI50 (MDA-N): 25.6 µM (inactive) | GI50 (SW-620): 43.9 µM (inactive) | GI50 (CAKI-1): 22.1 µM (inactive) | GI50 (SN12C): 22.3 µM (inactive) | GI50 (RXF 393): 18.6 µM (inactive) | GI50 (IGROV-1): 27.9 µM (inactive) | GI50 (SF-295): 61.1 µM (inactive) | GI50 (HOP-92): 47.5 µM (inactive) | GI50 (HL-60): 22.1 µM (inactive) | GI50 (SK-OV-3): 51.4 µM (inactive) | GI50 (HT-29): 57.8 µM (inactive) | GI50 (EKVX): 38.4 µM (inactive) | GI50 (MDA-MB-435): 20.1 µM (inactive) | GI50 (UACC-62): 29 µM (inactive) | GI50 (A549): 30.7 µM (inactive) | GI50 (OVCAR-8): 25.7 µM (inactive) | GI50 (SNB-75): 17.3 µM (inactive) | GI50 (MCF7): 17.7 µM (inactive) | GI50 (M14): 22.1 µM (inactive) | GI50 (RPMI-8226): 30.1 µM (inactive) | GI50 (DU-145): 36.4 µM (inactive) | GI50 (K562): 27.6 µM (inactive) | GI50 (OVCAR-3): 13.2 µM (inactive) | GI50 (SNB-19): 43.1 µM (inactive) | GI50 (OVCAR-5): 39.3 µM (inactive) | GI50 (UO-31): 26 µM (inactive) | GI50 (T47D): 11.1 µM (inactive) | GI50 (SF-268): 33.7 µM (inactive) | GI50 (MOLT-4): > 100 µM (inactive) | GI50 (ACHN): 23 µM (inactive) | GI50 (SR): 18.8 µM (inactive) | GI50 (NCI/ADR-RES): 20 µM (inactive) | GI50 (CCRF-CEM): 12 µM (inactive) | GI50 (Malme-3M): 36.6 µM (inactive) | GI50 (HOP-62): 37.4 µM (inactive)

COc1cc(C2CC(C)(N3CCOCC3)Oc3cc4c(cc32)OCO4)cc(OC)c1OC (stereo not drawn)
GI50 (OVCAR-4): 0.275 µM (active) | GI50 (PC-3): 0.116 µM (active) | GI50 (HCT-15): 0.136 µM | GI50 (NCI-H23): 0.209 µM (active) | GI50 (786-0): 0.157 µM (active) | GI50 (BT-549): > 100 µM (inactive) | GI50 (KM12): 0.0634 µM (active) | GI50 (Hs-578T): 0.191 µM (active) | GI50 (HCT-116): 0.129 µM (active) | GI50 (MDA-N): 0.0452 µM (active) | GI50 (SW-620): 0.136 µM (active) | GI50 (CAKI-1): 0.177 µM (active) | GI50 (SN12C): 0.189 µM (active) | GI50 (IGROV-1): 0.222 µM (active) | GI50 (LOX IMVI): 0.136 µM (active) | GI50 (NCI-H460): 0.156 µM (active) | GI50 (SF-295): 0.104 µM (active) | GI50 (HOP-92): 2.67 µM (inactive) | GI50 (SK-MEL-5): 0.103 µM (active) | GI50 (HL-60): 0.0228 µM (active) | GI50 (SK-OV-3): 0.482 µM (active) | GI50 (MDA-MB-231): 0.0748 µM (active) | GI50 (HT-29): 0.131 µM (active) | GI50 (MDA-MB-435): < 0.01 µM (active) | GI50 (UACC-62): 0.139 µM (active) | GI50 (A549): 2.14 µM (inactive) | GI50 (OVCAR-8): 0.531 µM (active) | GI50 (MCF7): 0.458 µM (active) | GI50 (HCC 2998): 0.427 µM (active) | GI50 (M14): 0.421 µM (active) | GI50 (RPMI-8226): 0.0263 µM (active) | GI50 (DU-145): 0.167 µM (active) | GI50 (K562): 0.026 µM (active) | GI50 (SF-539): 0.0619 µM (active) | GI50 (OVCAR-3): 0.207 µM (active) | GI50 (SNB-19): 0.589 µM (active) | GI50 (OVCAR-5): > 100 µM (inactive) | GI50 (UO-31): 12.2 µM (inactive) | GI50 (NCI-H522): 0.226 µM (active) | GI50 (U-251): 0.0577 µM (active) | GI50 (SF-268): 4.83 µM (inactive) | GI50 (MOLT-4): 0.136 µM (active) | GI50 (ACHN): 0.243 µM (active) | GI50 (COLO 205): 0.845 µM (active) | GI50 (SR): 0.206 µM (active) | GI50 (UACC-257): > 50.1 µM (inactive) | GI50 (NCI/ADR-RES): 0.2 µM (active) | GI50 (CCRF-CEM): 0.0352 µM (active) | GI50 (Malme-3M): 0.0726 µM (active) | GI50 (NCI-H226): 5.35 µM (inactive) | GI50 (HOP-62): 0.27 µM (active)
